Target: GLP-1 Receptor (Homo sapiens, UniProt P43220)
Assay: GLP-1R agonist cAMP stimulation assay (HEK293/GLP1R/CRE-LUC cells, HTRF cAMP dynamic 2 kit)
Format: cell-based
Settings: HEK293/CRE-Luc cell line stably expressing the GLP-1 Receptor; 30 min incubation at 37° C.
Procedure, shortened: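 HEK293 cells stably expressing GLP-1R with CRE-Luc, 1000 cells/well in DPBS with 0.5 mM IBMX and 0.10% BSA, exposed to half-log compound dilutions for 30 min at 37 °C. cAMP measured by HTRF (665/615 nm) after 1 h at room temperature.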

Sequence of GLP-1 Receptor (P43220 24-463): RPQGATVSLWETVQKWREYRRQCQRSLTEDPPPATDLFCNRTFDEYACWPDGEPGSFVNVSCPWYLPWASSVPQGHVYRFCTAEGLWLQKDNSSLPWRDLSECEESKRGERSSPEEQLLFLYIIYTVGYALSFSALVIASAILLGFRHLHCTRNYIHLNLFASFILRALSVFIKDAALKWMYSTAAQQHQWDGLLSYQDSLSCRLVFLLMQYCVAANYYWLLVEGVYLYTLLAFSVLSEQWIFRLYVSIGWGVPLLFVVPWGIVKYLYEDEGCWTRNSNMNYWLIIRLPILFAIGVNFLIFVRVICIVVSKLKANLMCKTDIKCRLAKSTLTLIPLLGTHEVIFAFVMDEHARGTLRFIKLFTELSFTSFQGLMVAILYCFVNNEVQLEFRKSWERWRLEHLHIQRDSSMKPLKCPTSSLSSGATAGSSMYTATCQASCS

Row | EC50 [nM] | Compound
1 | < 1 | Fc1cc(Cl)ccc1COc1nc2c(cc1C(F)(F)F)CCN(Cc1nc3cc(-c4nnc(C5CC5)[nH]4)ncc3n1C[C@@H]1CCO1)C2 [Compound 65, 2-[(4-chloro-2-fluorophenyl)methoxy]-7-{[6-(5-cyclopropyl-4H-1,2,4-triazol-3-yl)-3-{1[(2S)-oxetan-2-yl]methyl}-3H-imidazo[4,5-c]pyridin-2-yl]methyl}-3-(trifluoromethyl)-5,6,7,8-tetrahydro-1,7-naphthyridine]
2 | < 1 | O=C(O)c1cc2nc(CN3CCc4cc(C(F)(F)F)c(OCc5ccc(Cl)cc5F)nc4C3)n(C[C@@H]3CCO3)c2cn1 [Compound 26, 2-({2-[(4-chloro-2-fluorophenyl)methoxy]-3-(trifluoromethyl)-5,6,7,8-tetrahydro-1,7-naphthyridin-7-yl}methyl)-3-{[(2S)-oxetan-2-yl]methyl}-3H-imidazo[4,5-c]pyridine-6-carboxylic acid]
3 | < 1 | N#Cc1nnc(-c2cc3nc(CN4CCc5cc(Cl)c(OCc6ccc(Cl)cc6F)nc5C4)n(C[C@@H]4CCO4)c3cn2)[nH]1 [Compound 8, 5-[2-({3-chloro-2-[(4-chloro-2-fluorophenyl)methoxy]-5,6,7,8-tetrahydro-1,7-naphthyridin-7-yl}methyl)-3-{[(2S)-oxetan-2-yl]methyl}-3H-imidazo[4,5-c]pyridin-6-yl]-4H-1,2,4-triazole-3-carbonitrile]
4 | 1 to 300 | COCCn1c(CN2CCc3cc(C(F)(F)F)c(OCc4ccc(Cl)cc4F)nc3C2)nc2cc(-c3nnc(C(F)(F)F)[nH]3)ncc21 [Compound 80, 2-[(4-chloro-2-fluorophenyl)methoxy]-7-{[3-(2-methoxyethyl)-6-[5-(trifluoromethyl)-4H-1,2,4-triazol-3-yl]-3H-imidazo[4,5-c]pyridin-2-yl]methyl}-3-(trifluoromethyl)-5,6,7,8-tetrahydro-1,7-naphthyridine]
5 | < 1 | N#Cc1ccc(COc2nc3c(cc2C(F)(F)F)CCN(Cc2nc4cc(-c5nnc(C(F)(F)F)[nH]5)ncc4n2C[C@@H]2CCO2)C3)c(F)c1 [Compound 75, 3-fluoro-4-[({7-[(3-{[(2S)-oxetan-2-yl]methyl}-6-[5-(trifluoromethyl)-4H-1,2,4-triazol-3-yl]-3H-imidazo[4,5-c]pyridin-2-yl)methyl]-3-(trifluoromethyl)-5,6,7,8-tetrahydro-1,7-naphthyridin-2-yl}oxy)methyl]benzonitrile]
6 | < 1 | NC(=O)c1nnc(-c2cc3nc(CN4CCc5cc(C(F)(F)F)c(OCc6c(F)cc(Cl)cc6F)nc5C4)n(C[C@@H]4CCO4)c3cn2)[nH]1 [Compound 44, 5-[2-({2-[(4-chloro-2,6-difluorophenyl)methoxy]-3-(trifluoromethyl)-5,6,7,8-tetrahydro-1,7-naphthyridin-7-yl}methyl)-3-{[(2S)-oxetan-2-yl]methyl}-3H-imidazo[4,5-c]pyridin-6-yl]-4H-1,2,4-triazole-3-carboxamide]
7 | < 1 | Fc1cc(Cl)ccc1COc1nc2c(cc1C(F)(F)F)CCN(Cc1nc3c(F)c(-c4nnn[nH]4)ccc3n1C[C@@H]1CCO1)C2 [Compound 88, 2-[(4-chloro-2-fluorophenyl)methoxy]-7-[(4-fluoro-1-{[(2S)-oxetan-2-yl]methyl}-5-(1H-1,2,3,4-tetrazol-5-yl)-1H-1,3-benzodiazol-2-yl)methyl]-3-(trifluoromethyl)-5,6,7,8-tetrahydro-1,7-naphthyridine]
8 | 1 to 300 | CNC(=O)c1ccc2c(nc(CN3CCc4cc(C(F)(F)F)c(OCc5ccc(Cl)cc5F)nc4C3)n2C[C@@H]2CCO2)c1F [Compound 22, 2-({2-[(4-chloro-2-fluorophenyl)methoxy]-3-(trifluoromethyl)-5,6,7,8-tetrahydro-1,7-naphthyridin-7-yl}methyl)-4-fluoro-N-methyl-1-{[(2S)-oxetan-2-yl]methyl}-1H-1,3-benzodiazole-5-carboxamide]
9 | < 1 | Fc1cc(Cl)ccc1COc1nc2c(cc1C(F)(F)F)CCN(Cc1nc3cc(-c4nnc(C(F)(F)F)[nH]4)cnc3n1C[C@@H]1CCO1)C2 [Compound 16, 2-[(4-chloro-2-fluorophenyl)methoxy]-7-[(3-{[(2S)-oxetan-2-yl]methyl}-6-[5-(trifluoromethyl)-4H-1,2,4-triazol-3-yl]-3H-imidazo[4,5-b]pyridin-2-yl)methyl]-3-(trifluoromethyl)-5,6,7,8-tetrahydro-1,7-naphthyridine]
10 | < 1 | Cc1cc2c(nc1OCc1c(F)cc(Cl)cc1F)CN(Cc1nc3cc(-c4nnc(C#N)[nH]4)cnc3n1C[C@@H]1CCO1)CC2 [Compound 41, 5-[2-({2-[(4-chloro-2,6-difluorophenyl)methoxy]-3-methyl-5,6,7,8-tetrahydro-1,7-naphthyridin-7-yl}methyl)-3-{1[(2S)-oxetan-2-yl]methyl}-3H-imidazo[4,5-b]pyridin-6-yl]-4H-1,2,4-triazole-3-carbonitrile]
11 | 1 to 300 | Fc1cc(Cl)ccc1COc1nc2c(cc1C(F)(F)F)CCN(Cc1nc3cc(-c4nnc(C(F)(F)F)[nH]4)ncc3n1C[C@H]1CCCO1)C2 [Compound 78, 2-[(4-chloro-2-fluorophenyl)methoxy]-7-[(3-{1[(2R)-oxolan-2-yl]methyl}-6-[5-(trifluoromethyl)-4H-1,2,4-triazol-3-yl]-3H-imidazo[4,5-c]pyridin-2-yl)methyl]-3-(trifluoromethyl)-5,6,7,8-tetrahydro-1,7-naphthyridine]
12 | < 1 | CC(c1nc2cc(-c3nnc(C(F)(F)F)[nH]3)ncc2n1C[C@@H]1CCO1)N1CCc2cc(C(F)(F)F)c(OCc3ccc(Cl)cc3F)nc2C1 (stereo partly drawn) [Compound 82, 2-[(4-chloro-2-fluorophenyl)methoxy]-7-[1-(3-{[(2S)-oxetan-2-yl]methyl}-6-[5-(trifluoromethyl)-4H-1,2,4-triazol-3-yl]-3H-imidazo[4,5-c]pyridin-2-yl)ethyl]-3-(trifluoromethyl)-5,6,7,8-tetrahydro-1,7-naphthyridine]
13 | 1 to 300 | COC(C)Cn1c(CN2CCc3cc(C(F)(F)F)c(OCc4ccc(Cl)cc4F)nc3C2)nc2cc(-c3nnc(C(F)(F)F)[nH]3)ncc21 (stereo in doubt) [Compound 81, 2-[(4-chloro-2-fluorophenyl)methoxy]-7-({3-[(2S)-2-methoxypropyl]-6-[5-(trifluoromethyl)-4H-1,2,4-triazol-3-yl]-3H-imidazo[4,5-c]pyridin-2-yl}methyl)-3-(trifluoromethyl)-5,6,7,8-tetrahydro-1,7-naphthyridine]
14 | < 1 | Cc1ccc(COc2nc3c(cc2C(F)(F)F)CCN(Cc2nc4c(F)c(-c5noc(=O)[nH]5)ccc4n2C[C@@H]2CCO2)C3)c(Cl)c1 [Compound 45]
15 | < 1 | CSc1nnc(-c2ccc3c(c2)nc(CN2CCc4cc(C(F)(F)F)c(OCc5ccc(Cl)cc5F)nc4C2)n3C[C@@H]2CCO2)[nH]1 [Compound 86, 2-[(4-chloro-2-fluorophenyl)methoxy]-7-({5-[5-(methylsulfanyl)-4H-1,2,4-triazol-3-yl]-1-{[(2S)-oxetan-2-yl]methyl}-1H-1,3-benzodiazol-2-yl}methyl)-3-(trifluoromethyl)-5,6,7,8-tetrahydro-1,7-naphthyridine]
16 | < 1 | Fc1cc(Cl)cc(F)c1CNc1nc2c(cc1C(F)(F)F)CCN(Cc1nc3cc(-c4nnc(C5CC5)[nH]4)ncc3n1C[C@@H]1CCO1)C2 [Compound 110, N-[(4-chloro-2,6-difluorophenyl)methyl]-7-{[6-(5-cyclopropyl-4H-1,2,4-triazol-3-yl)-3-{[(2S)-oxetan-2-yl]methyl}-3H-imidazo[4,5-c]pyridin-2-yl]methyl}-3-(trifluoromethyl)-5,6,7,8-tetrahydro-1,7-naphthyridin-2-amine]
17 | < 1 | Fc1cc(Cl)ccc1COc1nc2c(cc1C(F)(F)F)CCN(Cc1nc3cc(-c4nnc(S)[nH]4)ccc3n1C[C@@H]1CCO1)C2 [Compound 85, 5-[2-({2-[(4-chloro-2-fluorophenyl)methoxy]-3-(trifluoromethyl)-5,6,7,8-tetrahydro-1,7-naphthyridin-7-yl}methyl)-1-{[(2S)-oxetan-2-yl]methyl}-1H-1,3-benzodiazol-5-yl]-4H-1,2,4-triazole-3-thiol]
18 | < 1 | NC(=O)c1nnc(-c2cc3nc(CN4CCc5cc(C(F)(F)F)c(OCc6ccc(Cl)cc6F)nc5C4)n(C[C@@H]4CCO4)c3cn2)[nH]1 [Compound 43, 5-[2-({2-[(4-chloro-2-fluorophenyl)methoxy]-3-(trifluoromethyl)-5,6,7,8-tetrahydro-1,7-naphthyridin-7-yl}methyl)-3-{[(2S)-oxetan-2-yl]methyl}-3H-imidazo[4,5-c]pyridin-6-yl]-4H-1,2,4-triazole-3-carboxamide]
19 | < 1 | N#Cc1nnc(-c2cc3nc(CN4CCc5cc(C(F)(F)F)c(OCc6ccc(Cl)cc6F)nc5C4)n(C[C@@H]4CCO4)c3nn2)[nH]1 [Compound 42, 5-[6-({2-[(4-chloro-2-fluorophenyl)methoxy]-3-(trifluoromethyl)-5,6,7,8-tetrahydro-1,7-naphthyridin-7-yl}methyl)-7-{1[(2S)-oxetan-2-yl]methyl}-7H-imidazo[4,5-c]pyridazin-3-yl]-4H-1,2,4-triazole-3-carbonitrile]
20 | < 1 | Fc1cc(Cl)cc(F)c1COc1nc2c(cc1C(F)(F)F)CCN(Cc1nc3cc(-c4nnn[nH]4)ncc3n1C[C@@H]1CCO1)C2 [Compound 90, 2-[(4-chloro-2,6-difluorophenyl)methoxy]-7-[(3-{[(2S)-oxetan-2-yl]methyl}-6-(11H-1,2,3,4-tetrazol-5-yl)-3H-imidazo[4,5-c]pyridin-2-yl)methyl]-3-(trifluoromethyl)-5,6,7,8-tetrahydro-1,7-naphthyridine]
21 | 1 to 300 | O=C(O)c1ccc2c(n1)nc(CN1CCc3cc(C(F)(F)F)c(OCc4ccc(Cl)cc4F)nc3C1)n2C[C@@H]1CCO1 [Compound 25, 2-({2-[(4-chloro-2-fluorophenyl)methoxy]-3-(trifluoromethyl)-5,6,7,8-tetrahydro-1,7-naphthyridin-7-yl}methyl)-1-{[(2S)-oxetan-2-yl]methyl}-1H-imidazo[4,5-b]pyridine-5-carboxylic acid]

Reference: patent US20250206757A1 (GASHERBRUM BIO, INC., priority 2022, published 2025)
